pEC50, pIC50: −log10 of the molar value. Like-named read-outs stand apart in the source and are kept apart here.
Key:
murine splenocyte = murine splenocyte assay for immunosuppressive activity; assay type: cell-based; settings: read-out: Splenocyte IC50
Description: 3. Conventional murine splenocyte assay for immunosuppressive activity.
(§1) A diverse group of C7-modified 28-epirapalogs were prepared as described in Example 4.

[1] = target: T1, transcriptional switch components containing FKBP and 2098L mutant FRB domains (Homo sapiens, UniProt P42345+P62942); assay: transcription assay in engineered HD1080 cells expressing SEAP (txn 2098L); assay type: cell-based
T1 construct: transcriptional switchcomponents containing FKBP and 2098L mutant FRB domains, respectively; fused on or other part: The two switch components are separate chimeric proteins; Neither is given for this cell line
Summary of the method: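 HT1080-type engineered HD1080 cells constitutively express FKBP and 2098L-mutant FRB switch components and express SEAP upon compound-induced multimerization. Compound added to medium; secreted SEAP reporter measured after incubation. EC50 derived.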

FKBP = FKBP (Homo sapiens, UniProt P62942); assay: FKBP competitive binding assay based on fluorescence polarization (FP); settings: competitive FP binding
Description: A Competitive Binding FP Assay is described in detail in WO99/36553 and WO96/41865. That assay permits the in vitro measurement of an IC50 value for a given compound which reflects its ability to bind to an FKBP-protein in competition with a labeled FKBP ligand, such as, for example, FK506.
as §1

T1 sequence (P62942 2-108 limits assumed, stated change not applied, other chains not shown): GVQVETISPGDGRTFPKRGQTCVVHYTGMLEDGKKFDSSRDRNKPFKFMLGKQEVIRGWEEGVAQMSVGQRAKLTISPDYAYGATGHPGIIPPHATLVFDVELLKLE
FKBP, sequence (P62942 whole entry): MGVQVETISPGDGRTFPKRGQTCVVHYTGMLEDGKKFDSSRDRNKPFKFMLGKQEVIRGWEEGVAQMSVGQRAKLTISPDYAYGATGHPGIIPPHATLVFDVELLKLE

pIC50 (murine splenocyte; Mus musculus, Splenocyte, murine splenocyte assay, immunosuppressive activity) | pEC50 ([1]; HD1080 cells, FKBP and 2098L mutant FRB switch, SEAP reporter, read-out: txn 2098L EC50) | pIC50 (FKBP; fluorescein-labelled FK506 probe (AP1491), read-out: FKBP binding IC50) | pIC50 (murine splenocyte; mouse splenocyte assay, methods of Example 2.5) | pEC50 ([1]; cellular transcription assay, methods of Example 2.5, read-out: TXN 2098L EC50) | TXN 2098L peak relative to rapamycin peak ([1]; superscript mark on EC50 cell) | pIC50 (FKBP; methods of Example 2.5, read-out: FKBP IC50) | Compound
6.16 to 6.19 | 8.10 | 7.19 | – | – | – | – | C=CCO[C@@H]1CC[C@@H](C[C@@H](C)[C@@H]2CC(=O)[C@H](C)/C=C(\C)[C@H](O)[C@@H](OC)C(=O)[C@H](C)C[C@H](C)/C=C/C=C/C=C(\C)[C@@H](OC)C[C@@H]3CC[C@@H](C)[C@@](O)(O3)C(=O)C(=O)N3CCCC[C@H]3C(=O)O2)C[C@H]1OC [43-O-allyl-28-epirapamycin]
– | – | – | 5.64 | 7.92 | (−) (peak was <80% rapamycin peak) | 7.52 | CCOC(=O)N(C)C1CC2CCC(C)C(O)(O2)C(=O)C(=O)N2CCCCC2C(=O)OC(C(C)CC2CCC(O)C(OC)C2)CC(=O)C(C)C=C(C)C(O)C(OC)C(=O)C(C)CC(C)C=CC=CC=C1C (single isomer, unassigned) [28-epi-7S-N-methyl-ethylcarbamate]
